This note sets out measurements from ChEMBL document CHEMBL5442219.

Common to all, as to settings: Compound concentration 10 µM
Experiment [1] addresses T1, Alpha-2C adrenergic receptor (Homo sapiens) (UniProt P18825).
T1 sequence (whole entry): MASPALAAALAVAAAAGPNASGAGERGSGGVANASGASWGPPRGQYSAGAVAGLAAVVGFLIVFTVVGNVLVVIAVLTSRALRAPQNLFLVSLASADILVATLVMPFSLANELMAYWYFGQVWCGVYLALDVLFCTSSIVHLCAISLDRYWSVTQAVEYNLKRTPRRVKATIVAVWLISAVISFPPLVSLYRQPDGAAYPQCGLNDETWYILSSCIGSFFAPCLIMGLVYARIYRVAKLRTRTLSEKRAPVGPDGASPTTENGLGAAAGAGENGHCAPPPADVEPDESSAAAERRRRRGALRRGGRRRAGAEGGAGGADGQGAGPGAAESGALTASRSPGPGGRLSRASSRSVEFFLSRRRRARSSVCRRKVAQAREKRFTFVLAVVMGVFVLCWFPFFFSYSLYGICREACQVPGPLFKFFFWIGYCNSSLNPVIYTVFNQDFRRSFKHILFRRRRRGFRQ
Description: PDSP Primary Binding target: ADRA2C - Compounds are tested at 10 uM concentration, plate are incubated at room temperature in the dark for 90 minutes. Reaction are stopped by vacuum filtration onto 0.3% polyethyleneimine soaked filter mats using Filtermate harvester. Scintilation cocktail is then melted onto microwave-dried filters on a hot plate and the radio activity is counted in Microbia counter.

Experiment [2] has as its target Muscarinic acetylcholine receptor M3 (Homo sapiens) (UniProt P20309).
Description: PDSP Primary Binding target: CHRM3 - Compounds are tested at 10 uM concentration, plate are incubated at room temperature in the dark for 90 minutes. Reaction are stopped by vacuum filtration onto 0.3% polyethyleneimine soaked filter mats using Filtermate harvester. Scintilation cocktail is then melted onto microwave-dried filters on a hot plate and the radio activity is counted in Microbia counter.
Experiment [3] concerns the target T2, Muscarinic acetylcholine receptor M4 (Homo sapiens) (UniProt P08173).
T2 sequence (whole entry): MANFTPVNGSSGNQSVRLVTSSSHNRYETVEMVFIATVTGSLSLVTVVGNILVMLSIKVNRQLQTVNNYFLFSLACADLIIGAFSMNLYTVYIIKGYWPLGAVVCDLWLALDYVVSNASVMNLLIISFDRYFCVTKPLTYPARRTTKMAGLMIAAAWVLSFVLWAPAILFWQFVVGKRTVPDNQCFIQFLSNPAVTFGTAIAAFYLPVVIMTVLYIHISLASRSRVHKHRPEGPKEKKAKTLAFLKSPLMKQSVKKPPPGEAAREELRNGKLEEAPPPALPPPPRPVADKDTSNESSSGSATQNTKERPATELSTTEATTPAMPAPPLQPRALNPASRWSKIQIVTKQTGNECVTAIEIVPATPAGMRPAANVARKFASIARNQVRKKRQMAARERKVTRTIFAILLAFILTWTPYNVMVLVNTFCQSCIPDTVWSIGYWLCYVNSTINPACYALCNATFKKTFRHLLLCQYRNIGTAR
Description: PDSP Primary Binding target: CHRM4 - Compounds are tested at 10 uM concentration, plate are incubated at room temperature in the dark for 90 minutes. Reaction are stopped by vacuum filtration onto 0.3% polyethyleneimine soaked filter mats using Filtermate harvester. Scintilation cocktail is then melted onto microwave-dried filters on a hot plate and the radio activity is counted in Microbia counter.

The target of experiment [4] is D(2) dopamine receptor (Homo sapiens) (UniProt P14416).
Sequence of D(2) dopamine receptor (Homo sapiens) (P14416 whole entry): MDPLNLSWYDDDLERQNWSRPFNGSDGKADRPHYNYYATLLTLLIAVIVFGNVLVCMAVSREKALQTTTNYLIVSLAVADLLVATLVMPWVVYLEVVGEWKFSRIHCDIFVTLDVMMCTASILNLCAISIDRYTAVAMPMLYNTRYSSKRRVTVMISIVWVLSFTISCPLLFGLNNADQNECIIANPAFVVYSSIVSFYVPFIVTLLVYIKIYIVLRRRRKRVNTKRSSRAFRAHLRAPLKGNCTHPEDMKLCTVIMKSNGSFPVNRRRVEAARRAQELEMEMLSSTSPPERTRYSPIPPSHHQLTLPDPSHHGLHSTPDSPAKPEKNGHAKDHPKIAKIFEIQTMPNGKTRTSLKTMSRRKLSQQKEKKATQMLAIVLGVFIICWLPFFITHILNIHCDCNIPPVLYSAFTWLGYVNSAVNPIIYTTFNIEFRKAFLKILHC
Description: PDSP Primary Binding target: DRD2 - Compounds are tested at 10 uM concentration, plate are incubated at room temperature in the dark for 90 minutes. Reaction are stopped by vacuum filtration onto 0.3% polyethyleneimine soaked filter mats using Filtermate harvester. Scintilation cocktail is then melted onto microwave-dried filters on a hot plate and the radio activity is counted in Microbia counter.
Experiment [5] has as its target D(3) dopamine receptor (Homo sapiens) (UniProt P35462).
Description: PDSP Primary Binding target: DRD3 - Compounds are tested at 10 uM concentration, plate are incubated at room temperature in the dark for 90 minutes. Reaction are stopped by vacuum filtration onto 0.3% polyethyleneimine soaked filter mats using Filtermate harvester. Scintilation cocktail is then melted onto microwave-dried filters on a hot plate and the radio activity is counted in Microbia counter.
For experiment [6], the target named is T3, D(4) dopamine receptor (Homo sapiens) (UniProt P21917).
T3 sequence (whole entry): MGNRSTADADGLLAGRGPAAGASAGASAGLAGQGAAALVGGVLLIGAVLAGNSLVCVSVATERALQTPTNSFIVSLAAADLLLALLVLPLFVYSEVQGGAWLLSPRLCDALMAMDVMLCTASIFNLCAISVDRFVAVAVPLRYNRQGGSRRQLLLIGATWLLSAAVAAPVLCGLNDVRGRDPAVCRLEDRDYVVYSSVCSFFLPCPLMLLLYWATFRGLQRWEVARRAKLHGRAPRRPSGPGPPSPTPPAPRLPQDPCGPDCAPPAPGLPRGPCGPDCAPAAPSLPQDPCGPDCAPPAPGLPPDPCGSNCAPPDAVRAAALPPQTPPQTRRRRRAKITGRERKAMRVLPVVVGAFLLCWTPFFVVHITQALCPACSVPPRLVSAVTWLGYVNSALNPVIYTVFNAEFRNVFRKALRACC
Description: PDSP Primary Binding target: DRD4 - Compounds are tested at 10 uM concentration, plate are incubated at room temperature in the dark for 90 minutes. Reaction are stopped by vacuum filtration onto 0.3% polyethyleneimine soaked filter mats using Filtermate harvester. Scintilation cocktail is then melted onto microwave-dried filters on a hot plate and the radio activity is counted in Microbia counter.

Experiment [7] has as its target Histamine H3 receptor (Homo sapiens) (UniProt Q9Y5N1).
Description: PDSP Primary Binding target: HRH3 - Compounds are tested at 10 uM concentration, plate are incubated at room temperature in the dark for 90 minutes. Reaction are stopped by vacuum filtration onto 0.3% polyethyleneimine soaked filter mats using Filtermate harvester. Scintilation cocktail is then melted onto microwave-dried filters on a hot plate and the radio activity is counted in Microbia counter.
In experiment [8] the target is 5-hydroxytryptamine receptor 2B (Homo sapiens) (UniProt P41595).
Sequence of 5-hydroxytryptamine receptor 2B (Homo sapiens) (P41595 whole entry): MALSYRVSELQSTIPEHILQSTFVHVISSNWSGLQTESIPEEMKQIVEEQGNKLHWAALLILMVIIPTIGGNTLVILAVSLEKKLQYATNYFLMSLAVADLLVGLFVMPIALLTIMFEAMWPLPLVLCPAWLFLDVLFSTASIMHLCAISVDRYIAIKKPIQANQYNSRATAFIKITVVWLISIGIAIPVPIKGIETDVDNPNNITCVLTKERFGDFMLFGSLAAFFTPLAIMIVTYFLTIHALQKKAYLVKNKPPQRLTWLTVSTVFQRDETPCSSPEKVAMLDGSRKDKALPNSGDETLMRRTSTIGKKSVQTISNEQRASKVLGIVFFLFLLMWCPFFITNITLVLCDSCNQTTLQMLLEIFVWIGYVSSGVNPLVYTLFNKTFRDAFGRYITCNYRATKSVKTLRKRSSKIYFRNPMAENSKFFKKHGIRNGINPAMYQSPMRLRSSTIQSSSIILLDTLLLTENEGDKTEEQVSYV
Description: PDSP Primary Binding target: HTR2B - Compounds are tested at 10 uM concentration, plate are incubated at room temperature in the dark for 90 minutes. Reaction are stopped by vacuum filtration onto 0.3% polyethyleneimine soaked filter mats using Filtermate harvester. Scintilation cocktail is then melted onto microwave-dried filters on a hot plate and the radio activity is counted in Microbia counter.
Experiment [9] concerns the target 5-hydroxytryptamine receptor 7 (Homo sapiens) (UniProt P34969).
Description: PDSP Primary Binding target: HTR7 - Compounds are tested at 10 uM concentration, plate are incubated at room temperature in the dark for 90 minutes. Reaction are stopped by vacuum filtration onto 0.3% polyethyleneimine soaked filter mats using Filtermate harvester. Scintilation cocktail is then melted onto microwave-dried filters on a hot plate and the radio activity is counted in Microbia counter.
Experiment [10] deals with Delta-type opioid receptor (Homo sapiens) (UniProt P41143).
Sequence of Delta-type opioid receptor (Homo sapiens) (P41143 whole entry): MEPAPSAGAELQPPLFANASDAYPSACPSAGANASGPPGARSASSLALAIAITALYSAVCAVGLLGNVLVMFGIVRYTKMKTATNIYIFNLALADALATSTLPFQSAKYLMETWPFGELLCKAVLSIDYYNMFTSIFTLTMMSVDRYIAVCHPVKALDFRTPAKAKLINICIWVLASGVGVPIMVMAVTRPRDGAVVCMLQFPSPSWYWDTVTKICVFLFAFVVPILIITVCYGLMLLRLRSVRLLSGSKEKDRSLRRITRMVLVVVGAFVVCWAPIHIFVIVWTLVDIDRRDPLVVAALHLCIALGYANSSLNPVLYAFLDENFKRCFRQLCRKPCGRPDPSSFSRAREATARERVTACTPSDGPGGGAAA
Description: PDSP Primary Binding target: OPRD1 - Compounds are tested at 10 uM concentration, plate are incubated at room temperature in the dark for 90 minutes. Reaction are stopped by vacuum filtration onto 0.3% polyethyleneimine soaked filter mats using Filtermate harvester. Scintilation cocktail is then melted onto microwave-dried filters on a hot plate and the radio activity is counted in Microbia counter.
Experiment [11] has as its target Sodium-dependent dopamine transporter (Homo sapiens) (UniProt Q01959).
Description: PDSP Primary Binding target: SLC6A3 - Compounds are tested at 10 uM concentration, plate are incubated at room temperature in the dark for 90 minutes. Reaction are stopped by vacuum filtration onto 0.3% polyethyleneimine soaked filter mats using Filtermate harvester. Scintilation cocktail is then melted onto microwave-dried filters on a hot plate and the radio activity is counted in Microbia counter.
Experiment [12] addresses T4, 5-hydroxytryptamine receptor 3A (Homo sapiens) (UniProt P46098).
T4 sequence (whole entry): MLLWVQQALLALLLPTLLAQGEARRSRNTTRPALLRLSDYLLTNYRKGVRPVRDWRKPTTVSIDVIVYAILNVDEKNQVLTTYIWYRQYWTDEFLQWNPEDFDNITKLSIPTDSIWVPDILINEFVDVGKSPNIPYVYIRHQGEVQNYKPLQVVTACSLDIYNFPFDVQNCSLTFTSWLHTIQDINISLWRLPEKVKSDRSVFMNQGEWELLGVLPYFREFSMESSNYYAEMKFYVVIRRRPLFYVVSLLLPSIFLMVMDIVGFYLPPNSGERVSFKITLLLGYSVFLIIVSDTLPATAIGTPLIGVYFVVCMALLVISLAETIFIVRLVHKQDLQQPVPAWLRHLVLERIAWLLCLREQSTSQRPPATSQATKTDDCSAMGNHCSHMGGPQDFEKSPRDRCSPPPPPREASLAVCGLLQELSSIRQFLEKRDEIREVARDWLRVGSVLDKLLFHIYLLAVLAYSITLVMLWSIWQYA
Description: PDSP Primary Binding target: HTR3A - Compounds are tested at 10 uM concentration, plate are incubated at room temperature in the dark for 90 minutes. Reaction are stopped by vacuum filtration onto 0.3% polyethyleneimine soaked filter mats using Filtermate harvester. Scintilation cocktail is then melted onto microwave-dried filters on a hot plate and the radio activity is counted in Microbia counter.

In experiment [13] the target is Beta-3 adrenergic receptor (Homo sapiens) (UniProt P13945).
Sequence of Beta-3 adrenergic receptor (Homo sapiens) (P13945 whole entry, looked up): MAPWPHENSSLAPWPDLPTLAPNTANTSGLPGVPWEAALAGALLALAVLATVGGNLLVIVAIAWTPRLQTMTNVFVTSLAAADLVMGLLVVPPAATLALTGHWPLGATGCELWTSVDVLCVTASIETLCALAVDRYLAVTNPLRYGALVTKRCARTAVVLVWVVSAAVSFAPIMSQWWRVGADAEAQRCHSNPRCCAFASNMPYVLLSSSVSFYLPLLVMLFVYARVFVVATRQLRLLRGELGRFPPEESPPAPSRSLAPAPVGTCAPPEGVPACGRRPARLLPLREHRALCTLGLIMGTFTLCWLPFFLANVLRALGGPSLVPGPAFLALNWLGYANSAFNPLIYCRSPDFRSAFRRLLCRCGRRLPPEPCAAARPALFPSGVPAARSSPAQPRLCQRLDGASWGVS
Description: PDSP Primary Binding target: ADRB3 - Compounds are tested at 10 uM concentration, plate are incubated at room temperature in the dark for 90 minutes. Reaction are stopped by vacuum filtration onto 0.3% polyethyleneimine soaked filter mats using Filtermate harvester. Scintilation cocktail is then melted onto microwave-dried filters on a hot plate and the radio activity is counted in Microbia counter.

What is called inhibition is the drop in the measured response relative to a control, in per cent.

Sequence of D(3) dopamine receptor (Homo sapiens) (P35462 whole entry): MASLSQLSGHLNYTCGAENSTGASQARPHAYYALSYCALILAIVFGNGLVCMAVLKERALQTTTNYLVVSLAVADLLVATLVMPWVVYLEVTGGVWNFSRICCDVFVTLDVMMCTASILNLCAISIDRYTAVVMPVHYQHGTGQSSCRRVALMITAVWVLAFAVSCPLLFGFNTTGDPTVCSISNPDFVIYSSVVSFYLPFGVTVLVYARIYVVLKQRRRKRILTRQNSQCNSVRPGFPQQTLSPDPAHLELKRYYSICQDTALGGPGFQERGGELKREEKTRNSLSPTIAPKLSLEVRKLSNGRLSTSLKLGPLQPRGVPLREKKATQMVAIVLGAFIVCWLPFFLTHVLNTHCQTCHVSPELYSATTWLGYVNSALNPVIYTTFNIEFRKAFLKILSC
Sequence of 5-hydroxytryptamine receptor 7 (Homo sapiens) (P34969 whole entry): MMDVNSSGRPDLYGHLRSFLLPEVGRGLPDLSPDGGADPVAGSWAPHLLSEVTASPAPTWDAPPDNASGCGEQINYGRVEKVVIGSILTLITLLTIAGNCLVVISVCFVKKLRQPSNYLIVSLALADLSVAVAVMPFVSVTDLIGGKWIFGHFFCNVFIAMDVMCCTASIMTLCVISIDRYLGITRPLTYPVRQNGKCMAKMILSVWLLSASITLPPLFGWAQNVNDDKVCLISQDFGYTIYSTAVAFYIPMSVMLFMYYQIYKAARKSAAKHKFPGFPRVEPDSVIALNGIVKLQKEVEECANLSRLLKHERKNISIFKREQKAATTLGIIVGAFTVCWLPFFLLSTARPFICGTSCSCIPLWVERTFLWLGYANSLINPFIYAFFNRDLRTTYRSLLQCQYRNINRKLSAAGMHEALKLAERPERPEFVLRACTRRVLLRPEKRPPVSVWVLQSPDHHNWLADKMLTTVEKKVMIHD
Sequence of Sodium-dependent dopamine transporter (Homo sapiens) (Q01959 whole entry): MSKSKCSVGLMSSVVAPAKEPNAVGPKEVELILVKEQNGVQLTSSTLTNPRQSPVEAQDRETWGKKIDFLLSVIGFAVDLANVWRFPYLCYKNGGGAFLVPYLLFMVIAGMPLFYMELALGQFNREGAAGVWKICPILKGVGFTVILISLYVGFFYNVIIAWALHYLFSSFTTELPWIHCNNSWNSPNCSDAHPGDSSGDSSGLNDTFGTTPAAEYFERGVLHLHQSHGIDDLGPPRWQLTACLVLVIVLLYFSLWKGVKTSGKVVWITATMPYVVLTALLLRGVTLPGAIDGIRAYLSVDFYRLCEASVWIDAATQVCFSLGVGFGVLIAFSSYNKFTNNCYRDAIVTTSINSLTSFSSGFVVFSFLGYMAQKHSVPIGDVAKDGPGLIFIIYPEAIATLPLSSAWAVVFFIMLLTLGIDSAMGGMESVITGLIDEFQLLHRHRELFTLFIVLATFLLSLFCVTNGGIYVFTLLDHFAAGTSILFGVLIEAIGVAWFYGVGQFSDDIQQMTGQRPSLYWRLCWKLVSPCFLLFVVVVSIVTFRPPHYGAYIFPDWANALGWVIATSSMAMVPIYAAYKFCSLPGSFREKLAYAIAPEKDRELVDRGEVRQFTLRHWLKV
Sequence of Muscarinic acetylcholine receptor M3 (Homo sapiens) (P20309 whole entry, looked up): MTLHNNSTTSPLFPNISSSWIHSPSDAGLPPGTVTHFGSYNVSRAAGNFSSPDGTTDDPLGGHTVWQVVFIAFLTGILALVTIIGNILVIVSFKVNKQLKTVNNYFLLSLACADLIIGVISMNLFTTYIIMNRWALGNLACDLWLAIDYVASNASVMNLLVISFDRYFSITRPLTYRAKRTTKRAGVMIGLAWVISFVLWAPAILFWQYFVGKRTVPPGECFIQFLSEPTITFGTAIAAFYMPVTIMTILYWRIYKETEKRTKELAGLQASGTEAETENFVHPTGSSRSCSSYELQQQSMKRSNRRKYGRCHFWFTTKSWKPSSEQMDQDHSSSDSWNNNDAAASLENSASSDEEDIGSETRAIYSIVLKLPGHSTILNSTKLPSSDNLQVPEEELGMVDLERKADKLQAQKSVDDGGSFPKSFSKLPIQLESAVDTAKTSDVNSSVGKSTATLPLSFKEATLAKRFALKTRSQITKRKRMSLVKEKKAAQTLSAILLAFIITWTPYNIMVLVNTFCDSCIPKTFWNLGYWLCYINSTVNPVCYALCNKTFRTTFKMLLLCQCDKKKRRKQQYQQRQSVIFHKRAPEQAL
Sequence of Histamine H3 receptor (Homo sapiens) (Q9Y5N1 whole entry): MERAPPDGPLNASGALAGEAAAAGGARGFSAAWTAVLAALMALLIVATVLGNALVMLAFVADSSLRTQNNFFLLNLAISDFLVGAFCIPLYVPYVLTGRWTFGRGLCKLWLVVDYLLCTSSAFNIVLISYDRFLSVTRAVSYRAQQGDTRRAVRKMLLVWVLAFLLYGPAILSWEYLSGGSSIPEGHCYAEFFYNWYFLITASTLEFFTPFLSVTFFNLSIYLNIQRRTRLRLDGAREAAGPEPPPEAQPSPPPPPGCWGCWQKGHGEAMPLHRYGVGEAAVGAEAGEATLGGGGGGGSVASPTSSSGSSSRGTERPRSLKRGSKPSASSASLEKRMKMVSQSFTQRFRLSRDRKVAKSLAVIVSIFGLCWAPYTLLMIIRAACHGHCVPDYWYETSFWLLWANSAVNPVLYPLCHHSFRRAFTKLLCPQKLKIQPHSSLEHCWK

Take `Cc1csc(NC(=O)c2cc(F)cc(Oc3cncnc3)c2)n1`: the inhibition in experiment [1] is 6.42%; in [2], -2.7%; in [3], -5.33%; in experiment [4], 21%; in experiment [5], 72%; in [6], 23.6%. Further, the inhibition was 2.1% in experiment [7]; 26.7% in experiment [8]; 15.3% in experiment [9]; -0.43% in experiment [10]; 56.1% in experiment [11].
As for `Cc1c(C2=CCN(C(=O)N(C)C(C)C)CC2)nnn1-c1cccnc1F`, the inhibition in experiment [1] was 9.65%; in experiment [2], 1.95%; in [3], -9.61%; in [4] it was 11.9%; in [5], -1.95%; in [6], 26.9%. In addition, the inhibition in experiment [7] is -3.59%; in [8] it was 6.62%; in [12], 8.19%; in [9] it was -7.92%; in experiment [13] it was 14.8%.
As for `COC1CCN(c2cccc(-c3cc(NC(C)=O)nc(-n4nc(C)cc4C)n3)n2)CC1`, the inhibition was 26.3% in experiment [1]; 12.8% in experiment [4]; -2.89% in [6]; 1.55% in [7]; 30.3% in experiment [8]; 21.1% in experiment [12]. The inhibition was 0.28% in experiment [9], -6% in experiment [10], 49.2% in experiment [11] and 22.6% in [13].
As to `Cc1nnn(-c2ccc(-c3ccc(C4(C(=O)O)CC4)cc3)cc2)c1NC(=O)O[C@H](C)c1ccccc1`, the inhibition in experiment [1] was 2.71%; in experiment [2], -2.63%; in experiment [4], 25.4%; in experiment [5] it was 34.8%; in [7], -3.65%; in [8] it was -0.33%. For the same molecule, the inhibition in experiment [10] was 7.05%; in [11] it was 35%; in [13], 24.9%.
Turning to `COc1ccnc(N2CCC3(CCCN(Cc4c[nH]c5ccccc45)C3=O)CC2)n1`, the inhibition is 4.51% in experiment [1]; -7.79% in experiment [3]; 7% in experiment [4]; 28.5% in experiment [5]; 0.7% in experiment [7]; 23.6% in experiment [8]. Moreover, the inhibition in experiment [9] is 8.03%; in [10] it was 41.8%; in experiment [11] it was 44.7%; in experiment [13], -5.97%.
